“Also recorded” adds a separate entry of the source.
What was measured:
[1] = system: tobacco calli containing SEQ ID No. 7 (Kordia algicida HPPD); test: Rooting of calli on tembotrione media; type: cell-based, Nicotiana tabacum; settings: 6 to 12 weeks, calli with SEQ ID No. 7
Description: (§1) The leaf disks were co-cultivated for 2 days with Agrobacterium tumefaciens cells containing either the binary vector FMP27ebv or AtHPPDbv. Then the leaf disks were transferred to a media allowing the regeneration of shoots for 6 weeks on MS (Musharige and Skoog, (1962), Physiol Plant 15(3): 473-497) media supplemented with BAP (1 mg/mL; Benzylaminopurine), carbenicillin (250 mg/mL), cefotaxine (250 mg/mL), kanamycin (75 mg/mL) and tembotrione (10^−6 M)
(§2) Regenerated calli were transferred on media to induce the development of roots for 6 to 12 weeks: MS (1/2), supplemented with carbenicillin (250 mg/mL), cefotaxine (250 mg/mL), kanamycin (75 mg/mL), and tembotrione (10^−6 M).
(§3) Regenerated shoot calli from a cell transformed with a nucleic acid sequence encoding an HPPD comprising SEQ ID No. 11 (Arabidopsis thaliana) or SEQ ID No. 7 (Kordia algicida) were transferred to a media inducing root growth which media was further supplemented with the HPPD inhibitor tembotrione for 6 to 12 weeks.

[2] = system: tobacco calli containing SEQ ID No. 11 (Arabidopsis thaliana HPPD); test: Rooting of calli on tembotrione media; type: cell-based, Nicotiana tabacum; settings: 6 to 12 weeks, calli with SEQ ID No. 11
Description: as §1, §2, §3

[3] = system: rice shoots containing FMP27e; test: Bleaching of rice shoots on MS/2 with tembotrione; type: cell-based; settings: 2 weeks
Description: (§4) Rice transformation is achieved using methods well known in the art. Briefly, the Agrobacterium tumefaciens mediated transformation of rice was performed using immature embryos, from the restorer line 6G4317. Briefly, panicles from donor plants were harvested 8-12 days after pollination. The lemma of the immature seed was removed. Seeds were thereafter sterilized using a NaOCl based solution and Tween. The seeds were preinduced with […]. Agrobacterium tumefaciens cells are then co-cultivated with the preinduced seeds in presence of acetosyringone for 4 days at 24° C. in the dark. Thereafter, coleoptile from embryos are removed and washed, then put on a media supplemented with phosphinothricin for 3 weeks at 28° C. under a photoperiod rhythm of 16 hours. Then the growing calli were cut off from the embryos, and transferred to fresh media containing triacillin, phosphinothricin, L-proline and copper (II) sulfate.
(§5) For each callus-line and per Tembotrione concentration, 3 shoots, and randomly isolated from different callus pieces, were transferred to MS/2 with Tembotrione. As a general rule, transfer of the shoots from regeneration medium to MS/2 occurred 9 weeks after calli had been put on regeneration medium.
(§6) Cultures were incubated at 26.5° C. (16 hrs. photoperiod) and evaluation of symptoms occurred 2 weeks later.
(§7) New developing leaves of the shoots transferred have been scored on the basis of bleaching and categorized in 3 groups:
(§8) a) no bleaching b) intermediate bleaching c) complete bleaching
(§9) Within the category Intermediate bleaching′ a distinction has been made between shoots having new leaves showing only very little bleaching symptoms and thus tending to green leaves, and shoots with new leaves almost completely bleached.

[4] = system: rice shoots containing AtHPPD; test: Bleaching of rice shoots on MS/2 with tembotrione; type: cell-based; settings: 2 weeks
Description: as §4, §5, §6, §7, §8, §9

wild type rice plants = test: Rice glasshouse response to tembotrione, injury classes; type: in vivo; settings: 100 g AI/ha, 7 DAT; no transgene
Description: (§10) T0 rooted plantlets (either selected on phosphinothricin alone or on phosphinothricin supplemented with tembotrione) were transferred to soil in the glasshouse. Following an acclimation period, sufficiently grown plants were treated with the different HPPD inhibitor herbicides. As an example, T0 plants were sprayed with tembotrione of formulation type WP20 (100 g AI/ha) supplemented with ammonium sulfate and methyl ester raps oil. Seven days after the spray application, the symptoms due to the application of the herbicide were evaluated and compared the symptoms observed on wild type plants submitted to the same treatment.
(§11) The plants were classified in three categories based on the phenotype developed in response to the herbicide seven days after the treatment.

[5] = system: T0 rice plants containing AtHPPD; test: as above; type: in vivo; settings: 100 g AI/ha, 7 DAT
Description: as §10, §11

[6] = system: T0 rice plants containing FMP27e; test: as above; type: in vivo; settings: 100 g AI/ha, 7 DAT
Description: as §10, §11

[7] = system: soybean events expressing the FMP27 HPPD protein; test: Soybean greenhouse response to tembotrione; type: in vivo; settings: 100 g AI/ha, ten days after application; eight events
Description: Plants containing the transgene were then sprayed with HPPD inhibitor herbicides, as for example with tembotrione at a rate of 100 g AI/ha. Ten days after the application the symptoms due to the application of the herbicide were evaluated and compared to the symptoms observed on wild type plants under the same conditions. Eight events expressing the FMP27 HPPD protein have been generated from the green shoots of above and were transferred to the greenhouse. Four weeks after acclimation, i.e. plants at a developmental stage of 3-4 internodes were treated with 100 g AI/ha tembotrione prepared from a WP 20 formulation supplemented with ammonium sulfate and methyl ester raps oil. Ten days after application, the symptoms caused by the application of the HPPD inhibitor herbicide were evaluated and compared to the symptoms observed on treated non-transgenic wild-type soybean plants.

Question: How did the “% Elongation & rooting on 10^−6M tembotrione” value [1] turn out when CS(=O)(=O)c1ccc(C(=O)C2C(=O)CCCC2=O)c(Cl)c1COCC(F)(F)F [Tembotrione, 2-[2-chloro-4-(methylsulfonyl)-3-[(2,2,2,-tri-fluoroethoxy)methyl]benzoyl]-1,3-cyclo-hexanedione] was run?
Answer: 62%

Question: What about the “% Elongation & rooting on 10^−6M tembotrione” value [2] of the same molecule?
Answer: 0%

Question: What about the “N^o of shoots completely bleached” value ([3]; 1 μM) of the same molecule?
Answer: 10

Question: What about the “N^o of shoots with intermediate bleaching” value ([3]; 1 μM) of the same molecule?
Answer: 19

Question: What about the “N^o of shoots without bleaching” value ([3]; 1 μM) of the same molecule?
Answer: 28

Question: What about the “N^o of shoots completely bleached” value ([3]; 5 μM) of the same molecule?
Answer: 36

Question: And the “N^o of shoots with intermediate bleaching” value ([3]; 5 μM)?
Answer: 21

Question: And the “N^o of shoots without bleaching” value ([3]; 5 μM)?
Answer: 0

Question: And the “N^o of shoots completely bleached” value ([4]; 1 μM)?
Answer: 12

Question: And the “N^o of shoots with intermediate bleaching” value ([4]; 1 μM)?
Answer: 19

Question: And the “N^o of shoots without bleaching” value ([4]; 1 μM)?
Answer: 27

Question: What about the “N^o of shoots completely bleached” value ([4]; 5 μM) of the same molecule?
Answer: 58

Question: What about the “N^o of shoots with intermediate bleaching” value ([4]; 5 μM) of the same molecule?
Answer: 2

Question: What about the “N^o of shoots without bleaching” value ([4]; 5 μM) of the same molecule?
Answer: 0

Question: And the “Class I, number of plants (no injuries)” value (wild type rice plants)?
Answer: 0

Question: And the “Class II, number of plants (injury: 10-40%)” value (“Class II … (injury: 10-40%)” for short) (wild type rice plants)?
Answer: 0

Question: What about the “Class III, number of plants (injury: 41-100%)” value (“Class III … (injury: 41-100%)” below) (wild type rice plants) of the same molecule?
Answer: 20

Question: And the “Class I, number of plants (no injuries)” value [5]?
Answer: 1

Question: And the “Class II … (injury: 10-40%)” value [5]?
Answer: 13

Question: What about the “Class III … (injury: 41-100%)” value [5] of the same molecule?
Answer: 9

Question: And the “Class I, number of plants (no injuries)” value [6]?
Answer: 2

Question: And the “Class II … (injury: 10-40%)” value [6]?
Answer: 17

Question: And the “Class III … (injury: 41-100%)” value [6]?
Answer: 4

Question: What about the “bleaching symptoms of events” value [7] of the same molecule?
Answer: Two of the eight events didn't show any bleaching phenotype; also recorded: One event showed transitory light bleaching symptoms but recovered 14 days after tembotrione application; also recorded: remaining five events exhibited the bleaching like non-transgenic wild-type soybean plant

From patent publication US20150159169A1, “Plants Tolerant to HPPD Inhibitor Herbicides” (Bayer CropScience AG, priority 2009, published 2015)
